Results on 25 molecules are retold here after patent US7709471B2, “Compounds” (AstraZeneca AB, priority 2006, dated 2010).

Structures are written as SMILES.

In assay [1] the test system is human colon tumour cell line HT29. Put plainly: Cellular Assay (phosphohistone H3 Ser10 mitotic marker, HT29). Type of assay: cell-based. The settings on record: HT-29, 24 h, HT29 cells, read-out: IC50 (cellular assay, phosphohistone H3).
Description: Chromosome condensation in mitosis is accompanied by phosphorylation of histone H3 on serine 10.
After 24 hours, cells were fixed in 3.7% (v/v) formaldehyde then permeabilised and blocked for 10 minutes in 100 μl 0.5% (v/v) Triton X-100, 1% (w/v) bovine serum albumin (BSA) in phosphate buffered saline (PBS). […] The raw assay data were analysed by non-linear regression analysis and used to determine an IC50 value for each compound.
The target of assay [2] is recombinant Plk1 (Homo sapiens, UniProt P53350). Put plainly: In Vitro Plk1 Enzyme Assay (SPA, GST-Cdc25C phosphorylation). The settings on record: ATP 64 nM, 90 minutes, read-out: IC50 (Plk1 enzyme inhibition). Type of assay: biochemical.
recombinant Plk1, sequence (P53350 whole entry): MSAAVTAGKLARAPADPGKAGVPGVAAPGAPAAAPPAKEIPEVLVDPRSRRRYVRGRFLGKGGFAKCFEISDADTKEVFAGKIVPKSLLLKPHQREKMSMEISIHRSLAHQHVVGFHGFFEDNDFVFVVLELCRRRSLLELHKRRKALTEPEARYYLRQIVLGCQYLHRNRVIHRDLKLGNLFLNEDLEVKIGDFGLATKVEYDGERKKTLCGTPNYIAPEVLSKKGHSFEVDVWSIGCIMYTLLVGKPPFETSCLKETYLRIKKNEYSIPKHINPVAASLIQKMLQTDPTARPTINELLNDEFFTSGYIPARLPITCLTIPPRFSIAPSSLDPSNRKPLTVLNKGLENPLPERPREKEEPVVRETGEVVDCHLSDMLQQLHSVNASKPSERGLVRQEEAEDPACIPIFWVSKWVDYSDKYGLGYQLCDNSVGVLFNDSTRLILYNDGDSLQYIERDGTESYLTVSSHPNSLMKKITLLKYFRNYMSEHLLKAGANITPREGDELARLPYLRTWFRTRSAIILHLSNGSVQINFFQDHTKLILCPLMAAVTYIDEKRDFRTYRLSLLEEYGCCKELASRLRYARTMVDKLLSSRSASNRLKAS

As for `CCN1CCC(NC(=O)c2ccc(Nc3ncc4c(n3)N(C3CCCC3)CCC(=O)N4C)c(OC)c2)CC1` [Example 61, 4-[(6-cyclopentyl-2-methyl-3-oxo-2,6,8,10-tetrazabicyclo[5.4.0]undeca-8,10,12-trien-9-yl)amino]-N-(1-ethyl-4-piperidyl)-3-methoxy-benzamide], the IC50 in assay [1] and in assay [2] was less than 300 nM throughout.

As for `COc1cc(C(=O)NC2CCC(N(C)C)CC2)ccc1Nc1ncc2c(n1)N(C1CCCC1)CCC(=O)N2C` (centres unmarked) [Example 60, 4-[(6-cyclopentyl-2-methyl-3-oxo-2,6,8,10-tetrazabicyclo[5.4.0]undeca-8,10,12-trien-9-yl)amino]-N-(4-dimethylaminocyclohexyl)-3-methoxy-benzamide], the 50% inhibitory concentration (IC50) in assay [1] and in assay [2] was less than 300 nM throughout.

Regarding `COc1cc(C(=O)NC2CCN(C)CC2)ccc1Nc1ncc2c(n1)N(C1CCCC1)CC1(CC1)C(=O)N2C` [Example 246, 4-(9′-cyclopentyl-5′-methyl-6′-oxo-5′,6′,8′,9′-tetrahydrospiro[cyclopropane-1,7′-pyrimido[5,4-b][1,4]diazepine]-2′-ylamino)-N-(1-methylpiperidin-4-yl)-3-methoxybenzamide], the IC50 in assay [1] and in assay [2] was less than 300 nM each time.

For `CN1C(=O)CCN(C2CCCC2)c2nc(Nc3ccc(Cl)c(CO)c3)ncc21` [Example 131, 9-[[4-chloro-3-(hydroxymethyl)phenyl]amino]-6-cyclopentyl-2-methyl-2,6,8,10-tetrazabicyclo[5.4.0]undeca-8,10,12-trien-3-one], the results for the IC50 in assay [1] and in assay [2] were less than 30000 nM and less than 1000 nM, respectively.

For `CC(C)Oc1cc(C(=O)NC2CCN(C)CC2)ccc1Nc1ncc2c(n1)N(C1CCCC1)CCC(=O)N2C` [Example 197, 4-[(6-cyclopentyl-2-methyl-3-oxo-2,6,8,10-tetrazabicyclo[5.4.0]undeca-8,10,12-trien-9-yl)amino]-N-(1-methyl-4-piperidyl)-3-propan-2-yloxy-benzamide], the half-maximal inhibitory concentration (IC50) in assay [1] and in assay [2] was less than 1000 nM throughout.

Consider `COc1cc(C(=O)NC[C@@H]2CCCN2CC2CC2)ccc1Nc1ncc2c(n1)N(C1CCCC1)CCC(=O)N2C` [Example 82, 4-[(6-cyclopentyl-2-methyl-3-oxo-2,6,8,10-tetrazabicyclo[5.4.0]undeca-8,10,12-trien-9-yl)amino]-N-[[(2S)-1-(cyclopropylmethyl)pyrrolidin-2-yl]methyl]-3-methoxy-benzamide], for which the IC50 in assay [1] and in assay [2] was less than 300 nM throughout.

Consider `COc1cc(C(=O)NCCC2CCCCN2C)ccc1Nc1ncc2c(n1)N(C1CCCC1)CCC(=O)N2C` (centres unmarked) [Example 85, 4-[(6-cyclopentyl-2-methyl-3-oxo-2,6,8,10-tetrazabicyclo[5.4.0]undeca-8,10,12-trien-9-yl)amino]-3-methoxy-N-[2-(1-methyl-2-piperidyl)ethyl]benzamide], for which the IC50 in assay [1] and in assay [2] was less than 300 nM throughout.

Consider `CCCC1CN(C2CCCC2)c2nc(Nc3ccc(C(=O)NC4CCN(C)CC4)cc3OC)ncc2N(C)C1=O` (single isomer, unassigned) [Example 238], for which the IC50 in assay [1] and in assay [2] was less than 1000 nM throughout.

Regarding `COc1cc(C(=O)NC2CCN(C)CC2)ccc1Nc1ncc2c(n1)N(Cc1ccoc1)CCC(=O)N2C` [Example 231, 4-[[6-(3-furylmethyl)-2-methyl-3-oxo-2,6,8,10-tetrazabicyclo[5.4.0]undeca-8,10,12-trien-9-yl]amino]-3-methoxy-N-(1-methyl-4-piperidyl)benzamide], the IC50 was less than 30000 nM in assay [1] and less than 300 nM in assay [2].

Consider `COCCN1CC[C@@H](NC(=O)c2ccc(Nc3ncc4c(n3)N(C3CCCC3)CCC(=O)N4C)c(OC)c2)C1` [Example 328, 4-[(2-cyclopentyl-6-methyl-5-oxo-2,6,9,11-tetrazabicyclo[5.4.0]undeca-7,9,11-trien-10-yl)amino]-3-methoxy-N-[(3R)-1-(2-methoxyethyl)pyrrolidin-3-yl]benzamide], for which the IC50 in assay [1] and in assay [2] was less than 300 nM in each case.

Turning to `COCCNS(=O)(=O)c1ccc(Nc2ncc3c(n2)N(C2CCCC2)CCC(=O)N3C)cc1` [Example 125, 4-[(6-cyclopentyl-2-methyl-3-oxo-2,6,8,10-tetrazabicyclo[5.4.0]undeca-8,10,12-trien-9-yl)amino]-N-(2-methoxyethyl)benzenesulfonamide], the IC50 is less than 30000 nM in assay [1] and less than 100000 nM in assay [2].

In the case of `CN1C(=O)CCN(C2CCCC2)c2nc(Nc3cccc(OCCN4CCOCC4)c3)ncc21` [Example 180, 6-cyclopentyl-2-methyl-9-[[3-(2-morpholin-4-ylethoxy)phenyl]amino]-2,6,8,10-tetrazabicyclo[5.4.0]undeca-8,10,12-trien-3-one], the values for the half-maximal inhibitory concentration (IC50) in assay [1] and in assay [2] were less than 30000 nM and less than 100000 nM, respectively.

For `COc1cc(C(=O)NC2C[C@H]3CCC[C@@H](C2)N3C)ccc1Nc1ncc2c(n1)N(C1CCCCC1)CC1(CC1)C(=O)N2C` (stereo partly drawn) [Example 432, 4-(9′-cyclohexyl-5′-methyl-6′-oxo-5′,6′,8′,9′-tetrahydrospiro[cyclopropane-1,7′-pyrimido[5,4-b][1,4]diazepine]-2′-ylamino)-3-methoxy-N-[(1S,5R)-9-methyl-9-azabicyclo[3.3.1]non-7-yl]benzamide], the IC50 in assay [1] and in assay [2] was less than 300 nM throughout.

As for `COc1cc(C(=O)NC2C[C@H]3CCC[C@@H](C2)N3C)ccc1Nc1ncc2c(n1)N(C1CCCC1)CC1(CC1)C(=O)N2C` (stereo partly drawn) [Example 385, 4-(9′-cyclopentyl-5′-methyl-6′-oxo-5′,6′,8′,9′-tetrahydrospiro[cyclopropane-1,7′-pyrimido[5,4-b][1,4]diazepine]-2′-ylamino)-3-methoxy-N-[(1S,5R)-9-methyl-9-azabicyclo[3.3.1]non-7-yl]benzamide], the IC50 in assay [1] and in assay [2] was less than 300 nM in each case.

On to `COc1ccc(NC(=O)c2ccc(Nc3ncc4c(n3)N(C3CCCC3)CCC(=O)N4C)c(OC)c2)cc1` [Example 77, 4-[(6-cyclopentyl-2-methyl-3-oxo-2,6,8,10-tetrazabicyclo[5.4.0]undeca-8,10,12-trien-9-yl)amino]-3-methoxy-N-(4-methoxyphenyl)benzamide], for which the IC50 was less than 1000 nM in assay [1] and less than 100000 nM in assay [2].

For the molecule `CN1CCC(NC(=O)c2ccc(Nc3ncc4c(n3)N(c3ccccc3)CCC(=O)N4)c(Cl)c2)CC1` [Example 248, 3-chloro-N-(1-methyl-4-piperidyl)-4-[(3-oxo-6-phenyl-2,6,8,10-tetrazabicyclo[5.4.0]undeca-8,10,12-trien-9-yl)amino]benzamide], the IC50 is less than 30000 nM in assay [1] and less than 100000 nM in assay [2].

As to `CCC1CN(C2CCCC2)c2nc(Nc3ccc(C(=O)NC4CCN(C)CC4)cc3OC)ncc2N(C)C1=O` (single isomer, unassigned) [Example 236], the IC50 in assay [1] and in assay [2] was less than 300 nM throughout.

As to `CN1C(=O)CCN(C2CCCC2)c2nc(Nc3ccc(C(=O)NCCN4CCCC4)cc3Cl)ncc21` [Example 318, 3-chloro-4-[(2-cyclopentyl-6-methyl-5-oxo-2,6,9,11-tetrazabicyclo[5.4.0]undeca-7,9,11-trien-10-yl)amino]-N-(2-pyrrolidin-1-ylethyl)benzamide], the IC50 in assay [1] and in assay [2] was less than 300 nM in each case.

Consider `COc1cc(C(=O)NC2CCCCC2)ccc1Nc1ncc2c(n1)N(C1CCCC1)CCC(=O)N2C` [Example 90, N-cyclohexyl-4-[(6-cyclopentyl-2-methyl-3-oxo-2,6,8,10-tetrazabicyclo[5.4.0]undeca-8,10,12-trien-9-yl)amino]-3-methoxy-benzamide], for which the IC50 in assay [1] was less than 300 nM; in assay [2], less than 1000 nM.

As for `COc1cc(C(=O)NC2CCN(C)CC2)c(Cl)cc1Nc1ncc2c(n1)N(C1CCCC1)CCC(=O)N2C` [Example 320, 2-chloro-4-[(2-cyclopentyl-6-methyl-5-oxo-2,6,9,11-tetrazabicyclo[5.4.0]undeca-7,9,11-trien-10-yl)amino]-5-methoxy-N-(1-methyl-4-piperidyl)benzamide], the IC50 in assay [1] and in assay [2] was less than 300 nM throughout.

Turning to `COc1cc(C(=O)NC2CN3CCC2CC3)ccc1Nc1ncc2c(n1)N(C(C)C)CCC(=O)N2C` (centres unmarked) [Example 206, N-(1-azabicyclo[2.2.2]oct-8-yl)-3-methoxy-4-[(2-methyl-3-oxo-6-propan-2-yl-2,6,8,10-tetrazabicyclo[5.4.0]undeca-7,9,11-trien-9-yl)amino]benzamide], the IC50 in assay [1] and in assay [2] was less than 300 nM each time.

In the case of `COc1cc(C(=O)NCc2cccnc2)ccc1Nc1ncc2c(n1)N(C1CCCC1)CCC(=O)N2C` [Example 76, 4-[(6-cyclopentyl-2-methyl-3-oxo-2,6,8,10-tetrazabicyclo[5.4.0]undeca-8,10,12-trien-9-yl)amino]-3-methoxy-N-(pyridin-3-ylmethyl)benzamide], the figures for the half-inhibitory concentration (IC50) in assay [1] and in assay [2] were less than 300 nM and less than 1000 nM, respectively.

As to `COc1cc(C(=O)NC2CCN(C)CC2)ccc1Nc1ncc2c(n1)N(CCC(C)C)CCC(=O)N2C` [Example 7, 3-Methoxy-4-[[6-methyl-2-(3-methylbutyl)-5-oxo-2,6,9,11-tetrazabicyclo[5.4.0]undeca-7,9,11-trien-10-yl]amino]-N-(1-methyl-4-piperidyl)benzamide], the IC50 in assay [1] and in assay [2] was less than 1000 nM throughout.

Consider `COc1cc(C(=O)NC2CCN(C)CC2)ccc1Nc1ncc2c(n1)N(C1CCCC1)C(C)CC(=O)N2C` (centres unmarked) [Example 234, 4-[(6-cyclopentyl-2,5-dimethyl-3-oxo-2,6,8,10-tetrazabicyclo[5.4.0]undeca-8,10,12-trien-9-yl)amino]-3-methoxy-N-(1-methyl-4-piperidyl)benzamide], for which the IC50 in assay [1] is less than 1000 nM; in assay [2], less than 300 nM.

Regarding `CCN1CC[C@@H](NC(=O)c2ccc(Nc3ncc4c(n3)N(C3CCCC3)CCC(=O)N4C)c(OC)c2)C1` [Example 326, 4-[(2-cyclopentyl-6-methyl-5-oxo-2,6,9,11-tetrazabicyclo[5.4.0]undeca-7,9,11-trien-10-yl)amino]-N-[(3R)-1-ethylpyrrolidin-3-yl]-3-methoxy-benzamide], the half-inhibitory concentration (IC50) in assay [1] and in assay [2] was less than 300 nM each time.
